≈ marks a conversion by molar mass, not a printed value. Like-named read-outs stand apart in the source and are kept apart here.
How the values were obtained:
Assay type in all cases: cell-based
[1] = test system: Haemophilus influenzae 1218; test: MIC, microtiter broth dilution (NCCLS M100-S14), H. influenzae 1218 (susceptible)
Outline: (§1)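 Broth microdilution MICs in microtiter trays, run and interpreted per NCCLS M100-S14. Compounds were dissolved in DMSO as 40 mg/ml stocks.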

[2] = test system: Streptococcus pneumoniae 1016; test: MIC, microtiter broth dilution (NCCLS M100-S14), S. pneumoniae 1016 (susceptible)
Outline: as §1

[3] = test system: Streptococcus pyogenes 1079; test: MIC, microtiter broth dilution (NCCLS M100-S14), S. pyogenes 1079 (ermB)
Outline: as §1

[4] = test system: Streptococcus pneumoniae 1095; settings: microtiter broth dilution
Outline: as §1

[5] = test system: Streptococcus pneumoniae 1175; settings: microtiter broth dilution
Outline: as §1

[6] = H. influenzae 1218 (susceptible)
[7] = S. pneumoniae 1016 (susceptible)

SMILES	MIC H. influenzae 1218 ([1]; Haemophilus influenzae 1218) [µg/mL]	MIC S. pneumo. 1016 ([2]; Streptococcus pneumoniae 1016) [µg/mL]	MIC S. pyogenes 1079 ([3]; Streptococcus pyogenes 1079) [µg/mL]	MIC S. pneumo. 1095 ([4]; Streptococcus pneumoniae 1095) [µg/mL]	MIC S. pneumo. 1175 ([5]; Streptococcus pneumoniae 1175) [µg/mL]	MIC H. influenzae 1218 [1, 6] [µg/mL]	MIC S. pneumo. 1016 [2, 7] [µg/mL]	MIC S. pyogenes 1079 ([3]; S. pyogenes 1079 (ermB)) [µg/mL]	MIC S. pneumo. 1095 ([4]; S. pneumoniae 1095 (ermB)) [µg/mL]	MIC S. pneumo. 1175 ([5]; S. pneumoniae 1175 (mefA)) [µg/mL]
CCC1OC(=O)C(C)C(=O)C(C)C(OC2OC(C)CC(N(C)C)C2O)C(C)(OC)CC(C)C(=O)C(C)C2N(C3CN(S(=O)(=O)c4ccc5cnsc5c4)C3)C(=O)OC12C (stereo not drawn) [Example 3.104, 3-descladinosyl-11,12-dideoxy-6-O-methyl-3-oxo-12,11-(oxycarbonyl-(1-(benzo[d]isothiazole-6-sulfonyl)-azetidin-3-yl)-imino)-erythromycin A]	<0.063	<0.063	1 (≈ 1.16 µM)	<0.063	<0.063	–	–	–	–	–
CCC1OC(=O)C(C)C(=O)C(C)C(OC2OC(C)CC(N(C)C)C2O)C(C)(OC)CC(C)C(=O)C(C)C2N(CC3CCN(C(=O)c4ccc5ncccc5c4)C3)C(=O)OC12C (stereo not drawn) [11.18]	–	–	–	–	–	2 (≈ 2.35 µM)	<0.06	>64.00	8 (≈ 9.4 µM)	2 (≈ 2.35 µM)
CCC1OC(=O)C(C)C(=O)C(C)C(OC2OC(C)CC(N(C)C)C2O)C(C)(OC)CC(C)C(=O)C(C)C2N(CC3CCN(Cc4ccc5ccccc5n4)C3)C(=O)OC12C (stereo not drawn) [11.04]	–	–	–	–	–	1 (≈ 1.19 µM)	<0.06	64 (≈ 76.5 µM)	<0.06	0.12 (≈ 0.143 µM)
CCC1OC(=O)C(C)C(=O)C(C)C(OC2OC(C)CC(N(C)C)C2O)C(C)(OC)CC(C)C(=O)C(C)C2N(CC3CCN(Cc4c[nH]c5cc(=O)[nH]cc45)C3)C(=O)OC12C (stereo not drawn) [13.02]	–	–	–	–	–	16 (≈ 19 µM)	0.12 (≈ 0.143 µM)	64 (≈ 76 µM)	16 (≈ 19 µM)	4 (≈ 4.75 µM)
CCC1OC(=O)C(C)C(=O)C(C)C(OC2OC(C)CC(N(C)C)C2O)C(C)(OC)CC(C)C(=O)C(C)C2N(C3CN(S(=O)(=O)c4ccc5c(c4)N(C)S(=O)(=O)N5C)C3)C(=O)OC12C (stereo not drawn) [Example 3.116, 3-descladinosyl-11,12-dideoxy-6-O-methyl-3-oxo-12,11-(oxycarbonyl-(1-(1,3-dimethyl-2,1,3-benzothiadiazole-2,2-dioxide-0-5-sulfonyl)-azetidin-3-yl)-imino)-erythromycin A]	0.5 (≈ 0.539 µM)	<0.063	0.5 (≈ 0.539 µM)	<0.063	<0.063	–	–	–	–	–
CCC1OC(=O)C(C)C(=O)C(C)C(OC2OC(C)CC(N(C)C)C2O)C(C)(OC)CC(C)C(=O)C(C)C2N(C3CN(Cc4c[nH]nc4-c4ccc(F)cc4)C3)C(=O)OC12C (stereo not drawn) [Example 1.42, (1H-3-[4-fluorophenyl]-pyrazol-4-yl)methyl]	2 (≈ 2.38 µM)	<0.06	>64.00	<0.06	0.25 (≈ 0.297 µM)	–	–	–	–	–
CCC1OC(=O)C(C)C(=O)C(C)C(OC2OC(C)CC(N(C)C)C2O)C(C)(OC)CC(C)C(=O)C(C)C2N(CC3CCN(Cc4nc5ccccc5n4C)C3)C(=O)OC12C (stereo not drawn) [11.06]	–	–	–	–	–	4 (≈ 4.76 µM)	<0.06	>64.00	2 (≈ 2.38 µM)	2 (≈ 2.38 µM)
CC[C@H]1OC(=O)[C@H](C)[C@@H](OC(=O)N2CCCC2)[C@H](C)[C@@H](O[C@@H]2O[C@H](C)C[C@H](N(C)C)[C@H]2O)[C@](C)(OC)C[C@@H](C)C(=O)[C@H](C)[C@H]2N(CC3CN(Cc4nc5ccccc5s4)C3)C(=O)O[C@]12C [Example 5.14, 2-R^2: (benzo[d]thiazol-2-yl)methyl; R^#: pyrrolidin-1-yl]	4 (≈ 4.31 µM)	<0.06	32 (≈ 34.5 µM)	4 (≈ 4.31 µM)	<0.06	–	–	–	–	–
CCC1OC(=O)C(C)C(=O)C(C)C(OC2OC(C)CC(N(C)C)C2O)C(C)(OC)CC(C)C(=O)C(C)C2N(CC3CCCN3C(=O)c3ccnc4ccccc34)C(=O)OC12C.O=CO (stereo not drawn) [10.10]	–	–	–	–	–	4	<0.06	>64.00	<0.06	1
CCC1OC(=O)C(C)C(=O)C(C)C(OC2OC(C)CC(N(C)C)C2O)C(C)(OC)CC(C)C(=O)C(C)C2N(C3CN(Cc4cnn(-c5cccc(F)c5)c4)C3)C(=O)OC12C (stereo not drawn) [Example 1.41, (1-[3-fluorophenyl]-pyrazol-4-yl)methyl]	0.12 (≈ 0.143 µM)	<0.06	>64.00	<0.06	<0.06	–	–	–	–	–
CCC1OC(=O)C(C)C(=O)C(C)C(OC2OC(C)CC(N(C)C)C2O)C(C)(OC)CC(C)C(=O)C(C)C2N(CC3CCCN3C(=O)c3ccc(-n4cccn4)nc3)C(=O)OC12C.O=CO (stereo not drawn) [10.13]	–	–	–	–	–	16	<0.06	>64.00	0.5	0.5
CCC1OC(=O)C(C)C(=O)C(C)C(OC2OC(C)CC(N(C)C)C2O)C(C)(OC)CC(C)C(=O)C(C)C2N(C3CN(S(=O)(=O)c4ccc5sc(C)nc5c4)C3)C(=O)OC12C (stereo not drawn) [Example 3.90, 3-descladinosyl-11,12-dideoxy-6-O-methyl-3-oxo-12,11-(oxycarbonyl-(1-(2-methylbenzo[d]thiazole-5-sulfonyl)-azetidin-3-yl)-imino)-erythromycin A]	0.25 (≈ 0.284 µM)	<0.06	8 (≈ 9.1 µM)	<0.06	<0.06	–	–	–	–	–
CCC1OC(=O)C(C)C(=O)C(C)C(OC2OC(C)CC(N(C)C)C2O)C(C)(OC)CC(C)C(=O)C(C)C2N(CC3CCCN3C(=O)c3ccc4cccnc4n3)C(=O)OC12C.O=CO (stereo not drawn) [10.16]	–	–	–	–	–	0.25	<0.06	>64.00	<0.06	0.25
CCC1OC(=O)C(C)C(=O)C(C)C(OC2OC(C)CC(N(C)C)C2O)C(C)(OC)CC(C)C(=O)C(C)C2N(CC3CN(Cc4cnc5ccccc5c4)C3)C(=O)OC12C (stereo not drawn) [4.10]	<0.06	<0.06	16 (≈ 19.4 µM)	1 (≈ 1.22 µM)	<0.06	–	–	–	–	–
CCC1OC(=O)C(C)(F)C(=O)C(C)C(OC2OC(C)CC(N(C)C)C2O)C(C)(OC)CC(C)C(=O)C(C)C2N(CC3CCCN3C(=O)c3nc4ccccc4[nH]3)C(=O)OC12C [Example 10.27, 3-descladinosyl-11,12-dideoxy-2-fluoro-6-O-methyl-3-oxo-12,11-(oxycarbonyl-(1-(1H-benzo[d]imidazole-2-carboxyl)-((R)-pyrrolidin-2-yl)-methyl)-imino)-erythromycin A]	–	–	–	–	–	2 (≈ 2.33 µM)	<0.06	8 (≈ 9.32 µM)	<0.06	0.25 (≈ 0.291 µM)
CCC1OC(=O)C(C)C(=O)C(C)C(OC2OC(C)CC(N(C)C)C2O)C(C)(OC)CC(C)C(=O)C(C)C2N(C3CN(S(=O)(=O)c4ccc5cn[nH]c5c4)C3)C(=O)OC12C (stereo not drawn) [Example 3.85, 3-descladinosyl-11,12-dideoxy-6-O-methyl-3-oxo-12,11-(oxycarbonyl-(1-(1H-indazole-6-sulfonyl)-azetidin-3-yl)-imino)-erythromycin A]	0.25 (≈ 0.295 µM)	<0.06	1 (≈ 1.18 µM)	<0.06	<0.06	–	–	–	–	–
CCC1OC(=O)C(C)C(=O)C(C)C(OC2OC(C)CC(N(C)C)C2O)C(C)(OC)CC(C)C(=O)C(C)C2N(C3CN(S(=O)(=O)c4ccc(OC)nc4)C3)C(=O)OC12C (stereo not drawn) [Example 3.38, 6-methoxypyridine-3-sulfonyl]	0.5 (≈ 0.596 µM)	<0.06	64 (≈ 76.3 µM)	1 (≈ 1.19 µM)	<0.06	–	–	–	–	–
CCC1OC(=O)C(C)C(=O)C(C)C(OC2OC(C)CC(N(C)C)C2O)C(C)(OC)CC(C)C(=O)C(C)C2N(CC3CCCN3C(=O)c3ccc4ccccc4n3)C(=O)OC12C (stereo not drawn) [10.08]	–	–	–	–	–	2 (≈ 2.35 µM)	<0.06	>64.00	<0.06	2 (≈ 2.35 µM)

— patent US7462600B2, “Macrolides” (Pfizer Inc, priority 2004, dated 2008)
